From patent US8536114B2, “Macrocycles” (Scynexis, Inc., priority 2008, dated 2013)
Numbered stars: 1 amine (or outer) side, 2 acyl side, 3 side chain; on linkers, the order of the positions; unused ones are H or OH. Square brackets hold non-standard residues; d marks the D form. Peptide text beside a SMILES is read from it. ξ: configuration not given here. X1 = CC(=O)OC(C)(C)C[C@@H](C(=O)[*:2])N(C)[*:1]; ξNMeBmt = C/C=C/C[C@@H](C)[C@@H](O)C(NC)C(=O)O; dNMeL = CN[C@H](CC(C)C)C(=O)O; dNMeV = CN[C@@H](C(=O)O)C(C)C; dAbu = CC[C@@H](N)C(=O)O; Sar = CNCC(=O)O

Columns and labels:
IL-2 = assay: T Cell stimulation (IL-2) in Jurkat cells with anti-CD3 and anti-CD28 co-stimulation; type: cell-based; settings: Homo sapiens, supernatant after 6 hours
Protocol: Compounds of formula (I) were tested for their T Cell stimulation (IL-2) in Jurkat cells with anti-CD3 and anti-CD28 co-stimulation. […] All compounds to be tested were dissolved in dimethyl sulfoxide. Cytotoxicity was evaluated with parallel Alamar Blue plates. Jurkat cells were seeded at 2×10^5 cells per well in 190 μL growth media in a 96-well plate. Cells were cultured in RPMI 1640 medium, 10% fetal bovine serum, and L-Glutamine with incubation at 37° C. with 5% carbon dioxide. After 1 hour of incubation the cells were stimulated with immobilized anti-CD3 (0.4 μg/well), anti-CD28 soluble (2 μg/mL). After 6 hours the sample supernatants were harvested and stored at −80° C. 50 μL samples of supernatant were tested for IL-2 using a Luminex® 1-plex assay.

[1] = tested on: Mitochondria prepared from rat livers; assay: Mitochondrial permeability transition (Ca2+-induced mitochondrial swelling); type: biochemical; settings: rat liver mitochondria, swelling induced by 150 micro molar Ca2+, compounds added 5 minutes before; read-out: MPT EC50 (inhibition of mitochondrial swelling)
Protocol: Mitochondrial permeability transition (MPT) was determined by measuring swelling of the mitochondria induced by Ca^2+. The procedure was adapted from the method described by Blattner et al., 2001, Analytical Biochem., 295: 220. Mitochondria were prepared from rat livers, which had been perfused with phosphate-buffered saline (PBS) to remove blood, using standard methods that utilized gentle homogenization in sucrose based buffer and then differential centrifugation to first remove cellular debris and then to pellet the mitochondria. Swelling was induced by 150 micro molar Ca^2+ (added from a concentrated solution of Calcium chloride) and was monitored by measuring the scattering at 535-540 nm. Representative compounds were added 5 minutes before swelling was induced. EC50 were determined by comparing swelling with and without the compounds of formula (I).

Compound	EC50 (IL-2) [nM]	EC50 [1] [µM]
C/C=C/C[C@@H](C)[C@@H](O)C1C(=O)N[C@H](CC)C(=O)N(C)CC(=O)N(C)[C@@H](CC(C)(C)OC(C)=O)C(=O)N[C@H](C(C)C)C(=O)N(C)[C@H](CC(C)C)C(=O)N[C@H](C)C(=O)N[C@@H](C)C(=O)N(C)[C@H](CC(C)C)C(=O)N(C)[C@H](CC(C)C)C(=O)N(C)[C@H](C(C)C)C(=O)N1C (some centres unmarked) [Compound E, [4′-acetoxy-N-methylleucine]^4cyclosporine A] (cyclo(A[dNMeL][dNMeL][dNMeV][ξNMeBmt][dAbu][Sar][X1][dV][dNMeL][dA]))	< 10	
[4′-hydroxy-N-methylleucine]^4cyclosporine A S-benzyl-4′-thiocarbonate [Compound X]		> 30
